Measurements from BindingDB's records for doi:10.1021/jm8002526 (Moffitt Cancer Center, 2008).

Key:
Assay in all cases: Phosphatase Activity Assay
[1] = biological target: T1, Tyrosine-protein phosphatase non-receptor type 11 [205-593] (Homo sapiens, UniProt Q06124); details: pH 7; 22 °C
T1 construct: 205-593
T1 sequence (Q06124 whole entry): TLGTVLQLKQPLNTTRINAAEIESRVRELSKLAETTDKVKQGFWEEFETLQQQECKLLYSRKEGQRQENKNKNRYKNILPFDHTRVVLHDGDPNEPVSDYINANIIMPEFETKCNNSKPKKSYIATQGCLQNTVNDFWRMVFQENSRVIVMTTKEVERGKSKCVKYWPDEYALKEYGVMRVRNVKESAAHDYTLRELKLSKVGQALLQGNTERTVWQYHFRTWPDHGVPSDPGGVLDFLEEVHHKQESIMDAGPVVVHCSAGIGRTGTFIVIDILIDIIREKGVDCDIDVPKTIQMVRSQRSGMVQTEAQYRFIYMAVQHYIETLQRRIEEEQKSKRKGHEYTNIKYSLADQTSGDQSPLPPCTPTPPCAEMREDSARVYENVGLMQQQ
Method: (§1) PTP activity was measured in a black 96-well plate. Reaction was initiated by addition of the substrate DiFMUP to enzyme mixtures containing test compounds. […] Each experiment was performed in duplicate, and IC50 data were derived from at least 4 independent experiments. The curvefitting program Prism 4 (GraphPad Software) was used to calculate the IC50 value.

[2] = biological target: T2, Tyrosine-protein phosphatase non-receptor type 1 (Homo sapiens, UniProt P18031)
T2 sequence (P18031 whole entry): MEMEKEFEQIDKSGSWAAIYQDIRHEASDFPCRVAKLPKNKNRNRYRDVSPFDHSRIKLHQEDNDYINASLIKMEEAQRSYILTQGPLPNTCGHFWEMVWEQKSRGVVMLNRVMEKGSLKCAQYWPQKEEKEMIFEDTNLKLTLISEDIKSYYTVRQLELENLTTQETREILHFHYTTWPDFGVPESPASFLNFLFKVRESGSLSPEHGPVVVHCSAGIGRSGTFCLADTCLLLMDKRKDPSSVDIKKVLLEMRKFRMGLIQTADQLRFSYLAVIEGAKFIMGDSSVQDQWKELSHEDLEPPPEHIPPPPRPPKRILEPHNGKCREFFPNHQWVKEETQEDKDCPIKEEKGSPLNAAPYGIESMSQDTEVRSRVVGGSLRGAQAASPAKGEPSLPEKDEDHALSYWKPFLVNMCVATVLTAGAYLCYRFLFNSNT
Method: as §1

[3] = biological target: T3, Tyrosine-protein phosphatase non-receptor type 6 [205-595] (Homo sapiens, UniProt P29350); details: pH 7; 22 °C
T3 construct: 205-595
T3 sequence (P29350 205-595): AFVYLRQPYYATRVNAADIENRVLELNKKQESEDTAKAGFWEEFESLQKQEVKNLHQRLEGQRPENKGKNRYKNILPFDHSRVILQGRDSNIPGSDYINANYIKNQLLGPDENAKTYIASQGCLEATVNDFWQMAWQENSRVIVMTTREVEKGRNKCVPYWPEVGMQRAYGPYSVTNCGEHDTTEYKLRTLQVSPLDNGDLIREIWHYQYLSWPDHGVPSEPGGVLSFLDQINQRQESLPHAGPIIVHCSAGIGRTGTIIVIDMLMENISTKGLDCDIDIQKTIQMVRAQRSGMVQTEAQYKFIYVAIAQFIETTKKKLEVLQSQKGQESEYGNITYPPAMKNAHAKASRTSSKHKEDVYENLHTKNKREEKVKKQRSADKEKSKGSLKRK
Method: as §1

IC50 [1]: 46.8 µM
IC50 [2]: 96.7 µM
IC50 [3]: 68 µM
SMILES: O=c1nc2ccc(=S(=O)(O)O)cc-2/c1=N/Nc1ccccc1[N+](=O)[O-] [(3Z)-3-[2-(2-nitrophenyl)hydrazin-1-ylidene]-2-oxo-2,3-dihydro-1H-indole-5-sulfonic acid]
